From publication PMC6478789, “A chemical toolbox for the study of bromodomains and epigenetic signaling” (Nature Communications, 2019)

Key:
AURKB = target: T1, AURKB (Homo sapiens, UniProt Q96GD4); assay: Temperature shift assay (protein kinases); type: binding; conditions: 10 μM probe; average of three measurements
T1 construct: Recombinant protein domains (bromodomain or kinases) at a concentration of 2 μM
Procedure: (§1) Temperature shift assays have been described by Fedorov et al.[46]. Recombinant protein domains (bromodomain or kinases) at a concentration of 2 μM in 10 mM HEPES, pH 7.5, and 500 mM NaCl were mixed with 10 μM of chemical probes. Temperature-dependent protein unfolding profiles were measured using a Real-Time PCR Mx3005p machine (Stratagene).

BMX = target: T2, BMX (Homo sapiens, UniProt P51813); assay: Temperature shift assay (protein kinases); type: binding; conditions: 10 μM probe; average of three measurements
T2 construct: Recombinant protein domains (bromodomain or kinases) at a concentration of 2 μM
Procedure: as §1

BRAF = target: T3, BRAF (Homo sapiens, UniProt P15056); assay: Temperature shift assay (protein kinases); type: binding; conditions: 10 μM probe; average of three measurements
T3 construct: Recombinant protein domains (bromodomain or kinases) at a concentration of 2 μM
Procedure: as §1

CASK = target: T4, CASK (Homo sapiens, UniProt O14936); assay: Temperature shift assay (protein kinases); type: binding; conditions: 10 μM probe; average of three measurements
T4 construct: Recombinant protein domains (bromodomain or kinases) at a concentration of 2 μM
T4 sequence (O14936 12-276 limits assumed): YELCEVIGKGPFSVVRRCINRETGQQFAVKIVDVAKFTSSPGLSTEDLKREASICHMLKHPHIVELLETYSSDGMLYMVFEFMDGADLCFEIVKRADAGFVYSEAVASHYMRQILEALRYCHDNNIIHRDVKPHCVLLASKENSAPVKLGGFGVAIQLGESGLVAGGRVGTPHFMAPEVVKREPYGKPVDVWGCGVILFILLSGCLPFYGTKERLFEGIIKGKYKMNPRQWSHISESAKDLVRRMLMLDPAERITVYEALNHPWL
Procedure: as §1

CSNK1D = target: T5, CSNK1D (Homo sapiens, UniProt P48730); assay: Temperature shift assay (protein kinases); type: binding; conditions: 10 μM probe; average of three measurements
T5 construct: Recombinant protein domains (bromodomain or kinases) at a concentration of 2 μM
T5 sequence (P48730 9-277 limits assumed): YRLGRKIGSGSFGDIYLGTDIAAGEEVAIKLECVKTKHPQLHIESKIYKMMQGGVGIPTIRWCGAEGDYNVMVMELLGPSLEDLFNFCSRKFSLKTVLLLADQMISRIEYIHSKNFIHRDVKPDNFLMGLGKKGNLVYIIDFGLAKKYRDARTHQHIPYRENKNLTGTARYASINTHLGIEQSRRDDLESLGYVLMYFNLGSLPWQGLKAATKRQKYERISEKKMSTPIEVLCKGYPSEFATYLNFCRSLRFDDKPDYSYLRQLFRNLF
Procedure: as §1

DAPK3 = target: T6, DAPK3 (Homo sapiens, UniProt O43293); assay: Temperature shift assay (protein kinases); type: binding; conditions: 10 μM probe; average of three measurements
T6 construct: Recombinant protein domains (bromodomain or kinases) at a concentration of 2 μM
Procedure: as §1

DYRK1A = target: T7, DYRK1A (Homo sapiens, UniProt Q13627); assay: Temperature shift assay (protein kinases); type: binding; conditions: 10 μM probe; average of three measurements
T7 construct: Recombinant protein domains (bromodomain or kinases) at a concentration of 2 μM
Procedure: as §1

FES = target: T8, FES (Homo sapiens, UniProt P07332); assay: Temperature shift assay (protein kinases); type: binding; conditions: 10 μM probe; average of three measurements
T8 construct: Recombinant protein domains (bromodomain or kinases) at a concentration of 2 μM
Procedure: as §1

GPRK5 = target: T9, GPRK5 (Homo sapiens, UniProt P34947); assay: Temperature shift assay (protein kinases); type: binding; conditions: 10 μM probe; average of three measurements
T9 construct: Recombinant protein domains (bromodomain or kinases) at a concentration of 2 μM
Procedure: as §1

MERTK = target: T10, MERTK (Homo sapiens, UniProt Q12866); assay: Temperature shift assay (protein kinases); type: binding; conditions: 10 μM probe; average of three measurements
T10 construct: Recombinant protein domains (bromodomain or kinases) at a concentration of 2 μM
T10 sequence (Q12866 587-858 limits assumed): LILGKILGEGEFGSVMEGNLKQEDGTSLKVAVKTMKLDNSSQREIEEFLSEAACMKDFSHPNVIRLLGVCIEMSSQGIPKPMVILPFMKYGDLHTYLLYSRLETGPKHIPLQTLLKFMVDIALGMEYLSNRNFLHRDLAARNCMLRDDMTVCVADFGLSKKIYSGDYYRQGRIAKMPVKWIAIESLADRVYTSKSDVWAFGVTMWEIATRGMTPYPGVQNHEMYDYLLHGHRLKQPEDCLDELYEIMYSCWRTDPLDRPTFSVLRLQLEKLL
Procedure: as §1

PIM1 = target: T11, PIM1 (Homo sapiens, UniProt P11309); assay: Temperature shift assay (protein kinases); type: binding; conditions: 10 μM probe; average of three measurements
T11 construct: Recombinant protein domains (bromodomain or kinases) at a concentration of 2 μM
Procedure: as §1

BAZ2B = target: T12, BAZ2B (Homo sapiens, UniProt Q9UIF8); assay: BROMOscan ligand-binding assay; conditions: KD, BROMOscan Gene Symbol BAZ2B
T12 sequence (Q9UIF8 2060-2164 limits assumed): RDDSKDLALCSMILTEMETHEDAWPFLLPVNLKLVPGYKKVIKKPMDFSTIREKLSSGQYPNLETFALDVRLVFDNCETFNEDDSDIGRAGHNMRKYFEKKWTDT
Source text: (§2) BROMOscan is a binding assay based on the well-known KINOMEscan technology. This assay measures the binding of a DNA-tagged bromodomain to an immobilized BRD ligand. If an inhibitor is present, it will compete with the bromodomain binding to the immobilized ligand, resulting in reduction of a quantitative PCR (qPCR) signal in a dose-dependent manner.

BRD4(1) = BRD4(1) (Homo sapiens, UniProt O60885); assay: BROMOscan ligand-binding assay
Source text: as §2

BRDT(2) = BRDT(2) (Homo sapiens, UniProt Q58F21); assay: BROMOscan ligand-binding assay; conditions: KD, BROMOscan Gene Symbol BRDT(2)
Source text: as §2

BRPF1 = target: T13, BRPF1 (Homo sapiens, UniProt P55201); assay: BROMOscan ligand-binding assay; conditions: KD, BRPF1
T13 sequence (P55201 628-732 limits assumed): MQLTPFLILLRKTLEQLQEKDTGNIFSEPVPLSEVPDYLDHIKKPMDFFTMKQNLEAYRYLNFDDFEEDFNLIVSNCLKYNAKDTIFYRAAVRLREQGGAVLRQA
Source text: as §2

CREBBP = CREBBP (Homo sapiens, UniProt Q92793); assay: BROMOscan ligand-binding assay; conditions: KD, CREBBP
Source text: as §2

PBRM1(5) = PBRM1(5) (Homo sapiens, UniProt Q86U86); assay: BROMOscan ligand-binding assay
Source text: as §2

SMARCA2(iso.A) = SMARCA2(iso.A) (Homo sapiens, UniProt P51531); assay: BROMOscan ligand-binding assay
Source text: as §2

TAF1L(2) = target: T14, TAF1L(2) (Homo sapiens, UniProt Q8IZX4); assay: BROMOscan ligand-binding assay
T14 sequence (Q8IZX4 1517-1626 limits assumed): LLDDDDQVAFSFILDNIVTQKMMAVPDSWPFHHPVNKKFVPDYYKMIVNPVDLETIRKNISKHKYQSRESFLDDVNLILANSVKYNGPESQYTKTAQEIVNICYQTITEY
Source text: as §2

TRIM33(PHD,BRD) = target: T15, TRIM33(PHD,BRD) (Homo sapiens, UniProt Q9UPN9); assay: BROMOscan ligand-binding assay
T15 sequence (Q9UPN9 882-1087 limits assumed): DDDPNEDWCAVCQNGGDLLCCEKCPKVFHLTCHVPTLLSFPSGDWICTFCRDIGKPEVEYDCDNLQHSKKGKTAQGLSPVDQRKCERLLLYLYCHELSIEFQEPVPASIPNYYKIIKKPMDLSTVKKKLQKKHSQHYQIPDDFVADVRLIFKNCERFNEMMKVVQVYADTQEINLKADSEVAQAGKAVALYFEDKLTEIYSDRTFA
Source text: as §2

WDR9(2) = WDR9(2) (Homo sapiens, UniProt Q9NSI6); assay: BROMOscan ligand-binding assay; conditions: KD, WDR9(2)
Source text: as §2

[1] = KD (BROMOscan), sheet prints no unit (nM)

Sequence of SMARCA2(iso.A) (P51531 1378-1506 limits assumed): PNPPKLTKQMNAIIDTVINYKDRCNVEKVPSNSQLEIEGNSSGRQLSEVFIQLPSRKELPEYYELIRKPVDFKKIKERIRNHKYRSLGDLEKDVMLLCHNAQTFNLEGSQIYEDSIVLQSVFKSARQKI
Sequence of PBRM1(5) (Q86U86 653-763 limits assumed): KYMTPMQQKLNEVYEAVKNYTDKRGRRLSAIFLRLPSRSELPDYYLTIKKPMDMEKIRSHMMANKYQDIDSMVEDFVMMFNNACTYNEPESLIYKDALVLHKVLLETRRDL
T6 sequence (O43293 13-275 limits assumed, species assumed): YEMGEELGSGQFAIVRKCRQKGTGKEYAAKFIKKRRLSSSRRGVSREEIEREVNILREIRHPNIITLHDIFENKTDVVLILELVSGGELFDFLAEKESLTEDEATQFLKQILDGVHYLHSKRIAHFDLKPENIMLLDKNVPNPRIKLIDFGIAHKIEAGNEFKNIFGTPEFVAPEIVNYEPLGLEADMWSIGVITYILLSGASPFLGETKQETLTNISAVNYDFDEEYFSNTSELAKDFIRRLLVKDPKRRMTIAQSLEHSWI
Sequence of CREBBP (Q92793 1085-1192 limits assumed): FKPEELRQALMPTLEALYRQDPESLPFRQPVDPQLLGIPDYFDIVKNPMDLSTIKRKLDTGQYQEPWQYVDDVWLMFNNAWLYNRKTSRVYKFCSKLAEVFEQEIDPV
T2 sequence (P51813 417-675 limits assumed, species assumed): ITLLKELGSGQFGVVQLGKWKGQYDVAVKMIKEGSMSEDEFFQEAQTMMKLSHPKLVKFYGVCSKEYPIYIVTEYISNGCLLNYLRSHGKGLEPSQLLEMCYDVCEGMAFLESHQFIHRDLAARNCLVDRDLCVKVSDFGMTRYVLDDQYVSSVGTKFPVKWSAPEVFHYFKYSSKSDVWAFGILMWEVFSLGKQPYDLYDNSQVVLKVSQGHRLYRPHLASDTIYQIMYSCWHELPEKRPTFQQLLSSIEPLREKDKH
Sequence of WDR9(2) (Q9NSI6 1313-1418 limits assumed): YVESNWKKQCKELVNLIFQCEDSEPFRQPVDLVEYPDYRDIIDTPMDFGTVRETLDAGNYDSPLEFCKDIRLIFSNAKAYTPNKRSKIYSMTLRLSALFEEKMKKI
T8 sequence (P07332 561-822 limits assumed, species assumed): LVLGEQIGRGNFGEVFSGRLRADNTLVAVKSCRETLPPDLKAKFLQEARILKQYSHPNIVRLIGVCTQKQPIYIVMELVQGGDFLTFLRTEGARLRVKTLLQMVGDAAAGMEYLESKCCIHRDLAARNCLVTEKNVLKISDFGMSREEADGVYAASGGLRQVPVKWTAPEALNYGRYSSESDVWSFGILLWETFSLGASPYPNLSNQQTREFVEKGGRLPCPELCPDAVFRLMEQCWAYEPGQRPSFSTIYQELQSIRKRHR
T9 sequence (P34947 186-448 limits assumed, species assumed): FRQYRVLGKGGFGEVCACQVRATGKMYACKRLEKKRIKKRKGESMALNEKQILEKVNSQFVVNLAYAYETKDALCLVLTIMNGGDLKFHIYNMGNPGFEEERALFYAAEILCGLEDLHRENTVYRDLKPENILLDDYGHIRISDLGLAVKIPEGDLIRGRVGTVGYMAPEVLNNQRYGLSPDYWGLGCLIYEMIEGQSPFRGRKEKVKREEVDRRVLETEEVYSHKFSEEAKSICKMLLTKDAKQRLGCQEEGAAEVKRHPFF
T11 sequence (P11309 38-290 limits assumed, species assumed): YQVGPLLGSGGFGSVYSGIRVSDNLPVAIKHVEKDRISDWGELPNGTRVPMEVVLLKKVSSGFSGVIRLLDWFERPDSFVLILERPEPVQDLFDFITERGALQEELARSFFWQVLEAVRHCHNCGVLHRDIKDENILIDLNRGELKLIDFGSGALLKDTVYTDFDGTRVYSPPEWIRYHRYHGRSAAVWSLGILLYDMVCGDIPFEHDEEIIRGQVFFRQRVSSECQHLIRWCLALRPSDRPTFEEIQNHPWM
T3 sequence (P15056 457-717 limits assumed, species assumed): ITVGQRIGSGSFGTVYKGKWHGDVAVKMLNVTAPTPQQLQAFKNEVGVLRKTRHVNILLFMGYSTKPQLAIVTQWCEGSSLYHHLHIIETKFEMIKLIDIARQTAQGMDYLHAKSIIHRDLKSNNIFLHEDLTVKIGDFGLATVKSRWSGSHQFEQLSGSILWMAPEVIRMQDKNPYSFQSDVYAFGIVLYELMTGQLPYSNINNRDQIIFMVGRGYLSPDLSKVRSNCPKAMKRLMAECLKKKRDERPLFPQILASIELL
T1 sequence (Q96GD4 77-327 limits assumed, species assumed): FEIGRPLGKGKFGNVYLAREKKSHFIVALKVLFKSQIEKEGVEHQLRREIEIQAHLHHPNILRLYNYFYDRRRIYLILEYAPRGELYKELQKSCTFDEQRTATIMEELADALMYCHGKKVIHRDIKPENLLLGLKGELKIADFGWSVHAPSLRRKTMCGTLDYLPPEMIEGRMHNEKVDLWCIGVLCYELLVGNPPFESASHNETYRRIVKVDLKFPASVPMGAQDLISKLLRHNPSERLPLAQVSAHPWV

- Temperature shift (AURKB): 0.3 Kelvin
- Temperature shift (BMX): -0.1 Kelvin
- Temperature shift (BRAF): -0.1 Kelvin
- Temperature shift (CASK): 0.0 Kelvin
- Temperature shift (CSNK1D): 0.5 Kelvin
- Temperature shift (DAPK3): 0.0 Kelvin
- Temperature shift (DYRK1A): -0.4 Kelvin
- Temperature shift (FES): -0.1 Kelvin
- Temperature shift (GPRK5): -0.4 Kelvin
- Temperature shift (MERTK): -0.2 Kelvin
- Temperature shift (PIM1): -0.1 Kelvin
- Kd (BAZ2B): 28 µM
- Kd (BRD4(1)): 2.9 µM
- Kd (BRDT(2)): 49 µM
- Kd (BRPF1): 20 µM
- Kd (CREBBP): 0.06 µM
- Kd (PBRM1(5); [1]): > 30000 nM
- Kd (PBRM1(5); KD, PBRM1(5)): > 100000 nM
- Kd (SMARCA2(iso.A); [1]): > 30000 nM
- Kd (SMARCA2(iso.A); KD, SMARCA2(iso.A)): > 100000 nM
- Kd (TAF1L(2)): 52 µM
- Kd (TRIM33(PHD,BRD); [1]): > 30000 nM
- Kd (TRIM33(PHD,BRD); KD, TRIM33(PHD,Bromo.)): > 100000 nM
- Kd (WDR9(2)): 59 µM
Compound: CCC(=O)N1CCOc2c(cc(-c3ccc(OC)c(OC)c3)cc2OCC2CCCN(C)C2)C1 (stereo not drawn) [I-CBP112]
